Results: US10202347B2, “Compound, production method therefor, and use of said compound” (MICROBIAL CHEMISTRY RESEARCH FOUNDATION, priority 2013, dated 2019)
Values after ≈ are worked out from the molar mass of the structure shown. Where two headings read alike, the source gives them in different places.

Assays:
[1] = system: Enterococcus faecalis JCM5803 strain; assay: Measurement of MIC for Enterococcus faecalis; type: cell-based; settings: JCM5803, heart infusion broth medium, 37° C., 18 hours, read-out: MIC Enterococcus faecalis JCM5803
Method: Each of the above compounds was measured for minimum inhibitory concentration (MIC) for Enterococcus faecalis.
Enterococcus faecalis JCM5803 strain was cultured under shaking in a heart infusion broth medium (product of Becton, Dickinson Co.) at 37° C. overnight.
After completion of the culturing, the culture was diluted with the heart infusion broth medium so that the bacteria were 2×10^4 CFU/mL to 9×10^4 CFU/mL.
Each of the test samples (each of the above compounds, clarithromycin, and ampicillin) was prepared with the heart infusion broth medium to have a concentration of 256 mg/L. From this concentration, the test sample was 2-fold diluted serially in 11 steps to 0.125 mg/L.
The above-diluted culture was added at 50 μL/well to 50 μL/well of the heart infusion broth medium containing each of the test samples at the above concentrations, and was statically cultured at 37° C. for 18 hours.
(§1) After completion of the culturing, the presence or absence of proliferation of each bacterium was visually determined based on turbidity, and the MIC for each bacterial strain was obtained.

[2] = system: H. pylori JCM12095 strain; assay: Measurement of MIC for H. pylori JCM12095; type: cell-based; settings: Helicobacter pylori, JCM12095; HP medium, 144 hours, 37° C., microaerobic; read-out: MIC H. pylori JCM 12095
Method: (§2) Each of the above compounds was measured for minimum inhibitory concentration (MIC) for Helicobacter pylori.
(§3) Helicobacter pylori JCM12093 strain and H. pylori JCM12095 strain each were statically cultured in a HP medium (brain heart infusion broth (product of Becton, Dickinson Co.) supplemented with 10% fetal bovine serum (product of Life Technologies Co.)) for 144 hours at 37° C. under microaerobic culture conditions (microaerobic conditions (N2:O2:CO2=85:5:10)).
(§4) After completion of the culturing, the culture was suspended with the HP medium and diluted so that Helicobacter pylori was 2×10^6 CFU/mL to 9×10^6 CFU/mL.
(§5) Each of the test samples (each of the above compounds, clarithromycin, and ampicillin) was prepared with the HP medium to have a concentration of 256 mg/L. From this concentration, the test sample was 2-fold diluted serially in 15 steps to 0.0078 mg/L.
(§6) The above-diluted culture was added at 50 μL/well to 50 μL/well of the HP medium containing each of the test samples at the above concentrations, and was statically cultured for 144 hours at 37° C. under microaerobic culture conditions (microaerobic conditions (N2:O2:CO2=85:5:10)). After completion of the culturing, the presence or absence of proliferation of each bacterium was visually determined based on turbidity, and the MIC for each bacterial strain was obtained.

[3] = system: Helicobacter pylori JCM12093 strain; assay: Measurement of MIC for Helicobacter pylori JCM12093; type: cell-based; settings: Helicobacter pylori, JCM12093; HP medium, 144 hours, 37° C., microaerobic; read-out: MIC Helicobacter pylori JCM 12093
Method: as §2, §3, §4, §5, §6

[4] = system: Escherichia coli K-12 strain; assay: Measurement of MIC for Escherichia coli; type: cell-based; settings: K12STRAIN, nutrient broth medium, 37° C. overnight, read-out: MIC Escherichia coli K-12
Method: (§7) Each of the above compounds was measured for minimum inhibitory concentration (MIC) for Staphylococcus aureus and Escherichia coli.
(§8) Staphylococcus aureus FDA209P strain and Escherichia coli K-12 strain each were cultured under shaking in a nutrient broth medium (polypeptone (product of NIHON PHARMACEUTICAL Co.) 1%, fish extract for bacteria (product of KYOKUTO PHARMACEUTICAL INDUSTRIAL Co.) 1%, and sodium chloride 0.2%) at 37° C. overnight.
(§9) After completion of the culturing, the culture was diluted with the nutrient broth medium so that the bacteria were 2×10^6 CFU/mL to 9×10^6 CFU/mL.
(§10) Each of the test samples (each of the above compounds, clarithromycin, and ampicillin) was prepared with the nutrient broth medium to have a concentration of 256 mg/L. From this concentration, the test sample was 2-fold diluted serially in 11 steps to 0.125 mg/L.
as §6, with “nutrient broth” for “HP”, “cultured” for “cultured for 144 hours”, “overnight.” for “under microaerobic culture conditions (microaerobic conditions (N2:O2:CO2=85:5:10)).”

[5] = system: Haemophilus influenza T-196 strain; assay: Measurement of MIC for Haemophilus influenza T-196; type: cell-based; settings: HI medium, 18 hours, 37° C., 5% carbon dioxide; read-out: MIC Haemophilus influenzae T-196
Method: (§11) Each of the above compounds was measured for minimum inhibitory concentration (MIC) for Haemophilus influenza.
(§12) Haemophilus influenza T-196 strain and H. influenza ARD476 strain each were statically cultured in a HI medium (Muller Hinton medium (product of Becton, Dickinson Co.) supplemented with 5% Fildes enrichment (product of Becton, Dickinson Co.)) at 37° C. overnight under aerobic conditions containing 5% carbon dioxide gas.
(§13) After completion of the culturing, the culture was suspended with the HI medium and diluted so that each Haemophilus influenza strain was 2×10^6 CFU/mL to 9×10^6 CFU/mL.
(§14) Each of the test samples (each of the above compounds, clarithromycin, and ampicillin) was prepared with the HI medium to have a concentration of 256 mg/L. From this concentration, the test sample was 2-fold diluted serially in 11 steps to 0.125 mg/L.
(§15) The above-diluted culture was added at 50 μL/well to 50 μL/well of the HI medium containing each of the test samples at the above concentrations, and was statically cultured for 18 hours at 37° C. under aerobic conditions containing 5% carbon dioxide gas.
as §1

[6] = system: Staphylococcus aureus FDA209P strain; assay: Measurement of MIC for Staphylococcus aureus; type: cell-based; settings: nutrient broth medium, 37° C. overnight, read-out: MIC Staphylococcus aureus FDA209P
Method: as §7, §8, §9, §10
as §6, with “nutrient broth” for “HP”, “cultured” for “cultured for 144 hours”, “overnight.” for “under microaerobic culture conditions (microaerobic conditions (N2:O2:CO2=85:5:10)).”

[7] = system: H. influenza ARD476 strain; assay: Measurement of MIC for H. influenza ARD476; type: cell-based; settings: Haemophilus influenzae, ARD476STRAIN; HI medium, 18 hours, 37° C., 5% carbon dioxide; read-out: MIC H. influenzae ARD476
Method: as §11, §12, §13, §14, §15, §1

[8] = Acute toxicity test (maximum tolerated dose); settings: female, ICR, mouse, in vivo, iv
Excerpt: ICR mice (female, 4 weeks old, product of Charles River Co.) were bred under the SPF conditions.
One half of the administration dose at which the mice were recognized to be dead or have serious toxicity for the observation period of 2 weeks was defined as the maximum tolerated dose (MTD) in the present experiment.

[9] = system: human stomach cancer cells MKN-74; assay: Cell proliferation test, monoculture test (GFP fluorescence); type: cell-based; settings: monoculture test, MKN-74 alone, cell proliferation rate, average of duplicate, read-out: Mono IC50
Method: (§16) Human stomach cancer cells MKN-74 (Riken Cell Bank) were cultured at 37° C. and 5% CO2 in DMEM supplemented with 10% FBS (product of GIBCO Co.), 100 units/mL penicillin G (product of Invitrogen Co.), and 100 μg/mL streptomycin (product of Invitrogen Co.).
(§17) The above cancer cells were allowed to undergo gene transfer of Green fluorescence protein (GFP) expression vector, pEGFP-C1 (product of BD Biosciences Co.) using the Lipofectamine reagent (product of Invitrogen Co.), to thereby clone cells stably expressing GFP.
(§18) Only DMEM containing 1% dialyzed serum, 5 μg/mL insulin, 5 μg/mL transferrine (product of Wako Pure Chemical Industries Co.), and 1.4 μM hydrocortisone (product of Sigma Co.) was placed in a 96-well plate at 0.1 mL/well, and respective evaluation samples (the compounds expressed by Structural Formulas (1) to (13)) were added thereto at respective concentrations, followed by maintaining at 37° C. and 5% CO2 for 2 days.
Next, the above human stomach cancer cells MKN-74 were dispersed in DMEM at 5×10^5 cells/mL, and were placed in the above plate at 10 μL/well, followed by further coculturing at 37° C. and 5% CO2 for 3 days.
(§19) Measurement of cell proliferation rates in the above coculture test and monoculture test was performed in the following manner.
(§20) The medium was removed from the wells of the above plate, and a cytolysis liquid (10 mM Tris-HCl [pH 7.4], 150 mM NaCl, 0.9 mM CaCl2, and 1% Triton X-100) was added thereto at 0.1 mL/well to lyse the cells. The fluorescence intensity of GFP was measured at an excitation wavelength of 485 nm and a fluorescence wavelength of 538 nm, and the cell proliferation rates were calculated from the following formula. Cell proliferation rate (%)=(Fluorescence intensity in the presence of the evaluation sample/Fluorescence intensity in the absence of the evaluation sample)×100

[10] = system: human stomach cancer cells MKN-74 cocultured with normal stromal cells derived from the human stomach, Hs738; assay: Cell proliferation test, coculture test with normal stromal cells Hs738 (GFP fluorescence); type: cell-based; settings: coculture test, MKN-74 with stromal cells Hs738, cell proliferation rate, average of duplicate, read-out: Cocul IC50
Method: as §16, §17
Normal stromal cells derived from the human stomach, Hs738 ((CRL-7869), ATCC) were cultured at 37° C. and 5% CO2 in DMEM supplemented with 10% FBS, 100 units/mL penicillin G (product of Invitrogen Co.), 100 μg/mL streptomycin (product of Invitrogen Co.), 5 μg/mL insulin, 5 μg/mL transferrin (product of Wako Pure Chemical Industries Co.), 1.4 μM hydrocortisone (product of Sigma Co.), and […] basic-FGF (product of Pepro Tech Co.).
as §18, with “The above normal stromal cells derived from the human stomach, Hs738 were dispersed at 5×10^4 cells/mL in” for “Only”, “Co.), and were” for “Co.) was”, “mL/well. Respective” for “mL/well, and respective”, “culturing” for “maintaining”
Next, the above human stomach cancer cells MKN-74 were dispersed in DMEM at 5×10^5 cells/mL, and were placed at 10 μL/well in the plate in which the above normal stromal cells derived from the human stomach, Hs738 had been cultured, followed by further coculturing at 37° C. and 5% CO2 for 3 days.
as §19, §20

| SMILES | MIC [1] | MIC [2] | MIC [3] | MIC [4] | MIC [5] | MIC [6] | MIC [7] | MTD at 2 weeks ([8]; MTD) | IC50 [9] | IC50 [10] | MTD at 2 weeks ([8]; intravenous administration, ICR mice, observed for 2 weeks, one half of the dose with death or serious toxicity, read-out: MTD) |
| --- | --- | --- | --- | --- | --- | --- | --- | --- | --- | --- | --- |
| CC1(C)S[C@@H]2[C@H](NC(=O)[C@H](N)c3ccccc3)C(=O)N2[C@H]1C(=O)O [ABPC, ampicillin, reference compound] | 0.5 µg/mL (≈ 1.43 µM) | 0.13 µg/mL (≈ 0.372 µM) | 0.25 µg/mL (≈ 0.715 µM) | 4 µg/mL (≈ 11.4 µM) | 0.5 µg/mL (≈ 1.43 µM) | < 0.125 µg/mL | 64 µg/mL (≈ 183 µM) | – | – | – | – |
| CCCCCCCCc1nc2ccccc2c(OCC(=O)OC)c1C [Structural Formula (1)] | – | – | – | – | – | – | – | ≥ 50 mg/kg | 28.1 µg/mL | 0.35 µg/mL | – |
| CCCCCCCCc1c(C)c(=O)c2ccccc2n1C#N [Structural Formula (7)] | – | – | – | – | – | – | – | 6.25 mg/kg | > 100 µg/mL | 0.007 µg/mL | – |
| CC[C@H]1OC(=O)[C@H](C)[C@@H](O[C@H]2C[C@@](C)(OC)[C@@H](O)[C@H](C)O2)[C@H](C)[C@@H](O[C@@H]2O[C@H](C)C[C@H](N(C)C)[C@H]2O)[C@](C)(OC)C[C@@H](C)C(=O)[C@H](C)[C@@H](O)[C@]1(C)O [Clarithromycin, clarithromycin, reference compound] | 0.5 µg/mL (≈ 0.668 µM) | 0.008 µg/mL (≈ 0.0107 µM) | 0.008 µg/mL (≈ 0.0107 µM) | 16 µg/mL (≈ 21.4 µM) | 8 µg/mL (≈ 10.7 µM) | < 0.125 µg/mL | 4 µg/mL (≈ 5.35 µM) | – | – | – | – |
| CCCCCCCCc1c(C)c(=O)c2ccccc2n1CNC(=O)SC [Structural Formula (10)] | – | – | – | – | – | – | – | – | 7.57 µg/mL | 0.27 µg/mL | ≥ 50 mg/kg |
| CCCCCCCCc1c(C)c(=O)c2ccccc2n1CC(=O)SC [Structural Formula (9)] | – | – | – | – | – | – | – | ≥ 50 mg/kg | 5.84 µg/mL | 1.4 µg/mL | – |
